#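 48-hour exposure; five concentrations; linearly interpolated endpoints. Here, GI50 denotes the concentration required for 50% inhibition of growth. TGI marks complete inhibition of growth.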
# Columns and labels:
# Test in all cases: inhibition of tumour cell growth, NCI panel, 48 h
# [1] = system: IGROV1 ovarian
# [2] = system: HL-60(TB) leukemia
# [3] = system: SN12C renal
# [4] = system: UO-31 renal
# [5] = system: HCT-15 colon
# [6] = system: NCI-H23 lung
# [7] = system: U251 CNS
# [8] = system: MOLT-4 leukemia
# [9] = system: CCRF-CEM leukemia
# [10] = system: OVCAR-4 ovarian
compound,measurement,setting,value
O=C(Nc1ccc([N+](=O)[O-])cc1)C1C(=O)C(=O)N(c2ccc([N+](=O)[O-])cc2)C1=O (configuration not stated),TGI,[1],> 100 µM
same,TGI,[2],> 100 µM
same,TGI,[3],> 100 µM
same,TGI,[4],> 100 µM
same,TGI,[5],> 100 µM
same,TGI,[6],> 100 µM
same,TGI,[7],> 100 µM
same,TGI,[8],> 100 µM
same,TGI,[9],> 100 µM
Nc1nc(Cl)cc(NCCO)n1,TGI,[10],> 100 µM
same,TGI,[1],> 100 µM
same,TGI,[3],> 100 µM
same,TGI,[4],> 100 µM
same,TGI,[5],> 100 µM
same,TGI,[6],> 100 µM
same,TGI,[7],> 100 µM
same,TGI,[8],> 100 µM
COC(COC(=O)N1CCN(C=O)CC1)C1=C(N2CC2)C(=O)C(C)=C(N2CC2)C1=O (configuration not stated),TGI,[10],2.13 µM
same,TGI,[1],1.38 µM
same,TGI,[3],1.14 µM
same,TGI,[4],3.19 µM
same,TGI,[5],8.1 µM
same,TGI,[6],0.926 µM
same,TGI,[7],2.71 µM
same,TGI,[8],14.1 µM
same,TGI,[9],4.77 µM
CCCCCc1c(C)[nH]c(/C=C2\N=C(c3ccc[nH]3)C=C2CC)c1C,GI50,[10],< 0.0176 µM
same,TGI,[10],0.727 µM
same,GI50,[1],0.0268 µM
same,TGI,[1],0.163 µM
same,GI50,[2],0.0151 µM
same,TGI,[2],0.0814 µM
same,GI50,[3],0.0169 µM
same,TGI,[3],0.226 µM
same,GI50,[4],0.0134 µM
same,TGI,[4],0.0357 µM
same,GI50,[5],< 0.01 µM
same,TGI,[5],0.125 µM
same,GI50,[6],< 0.0124 µM
same,TGI,[6],0.135 µM
same,GI50,[7],< 0.01 µM
same,TGI,[7],0.135 µM
same,GI50,[8],< 0.01 µM
same,TGI,[8],0.108 µM
Nc1c(C(=O)N/N=C/c2ccc(-c3ccc(Cl)cc3)o2)cnn1-c1ccnc2c(C(F)(F)F)cccc12,GI50,[10],72.5 µM
same,TGI,[10],> 100 µM
same,GI50,[1],> 100 µM
same,TGI,[1],> 100 µM
same,GI50,[2],> 100 µM
same,TGI,[2],> 100 µM
same,GI50,[3],> 100 µM
same,TGI,[3],> 100 µM
same,GI50,[4],> 100 µM
same,TGI,[4],> 100 µM
same,GI50,[5],> 100 µM
same,TGI,[5],> 100 µM
same,GI50,[6],> 100 µM
same,TGI,[6],> 100 µM
same,GI50,[7],> 100 µM
same,TGI,[7],> 100 µM
same,GI50,[8],50.8 µM
same,TGI,[8],> 100 µM
CCOC(=O)C1=C(C)N(N)C(=S)NC1c1ccc(C)cc1 (configuration not stated),GI50,[10],66 µM
same,TGI,[10],> 100 µM
same,GI50,[1],28.2 µM
same,TGI,[1],> 100 µM
same,GI50,[3],> 100 µM
same,TGI,[3],> 100 µM
same,GI50,[4],23.5 µM
same,TGI,[4],> 100 µM
same,GI50,[5],9.1 µM
same,TGI,[5],> 100 µM
same,GI50,[6],63.9 µM
same,TGI,[6],> 100 µM
same,GI50,[7],24.1 µM
same,TGI,[7],> 100 µM
same,GI50,[8],45.7 µM
same,TGI,[8],> 100 µM
same,GI50,[9],49.8 µM
same,TGI,[9],> 100 µM
O/N=C\c1c(O)ccc2ccccc12,TGI,[2],54.9 µM
same,TGI,[3],> 100 µM
same,TGI,[5],> 100 µM
same,TGI,[6],> 100 µM
same,TGI,[7],> 100 µM
same,TGI,[9],> 100 µM
C#C[C@]1(O)CC[C@H]2[C@@H]3CC=C4c5sc(Nc6ccccc6)nc5CC[C@]4(C)[C@H]3CC[C@@]21C,GI50,[10],3.14 µM
same,TGI,[10],65.6 µM
same,GI50,[1],2.06 µM
same,TGI,[1],5.5 µM
same,GI50,[3],2.86 µM
same,TGI,[3],11.1 µM
same,GI50,[4],1.43 µM
same,TGI,[4],2.91 µM
same,GI50,[5],1.69 µM
same,TGI,[5],6.47 µM
same,GI50,[6],2.37 µM
same,TGI,[6],13.1 µM
same,GI50,[7],0.886 µM
same,TGI,[7],3.18 µM
same,GI50,[8],0.577 µM
same,TGI,[8],12.4 µM
same,GI50,[9],1.1 µM
same,TGI,[9],11.3 µM
O=C(O)c1ccccc1-c1ccccc1C(=O)Nc1ccc2c(c1)Cc1cc(F)ccc1-2,TGI,[10],> 100 µM
same,TGI,[1],> 100 µM
same,TGI,[3],45.5 µM
same,TGI,[4],> 100 µM
same,TGI,[5],38 µM
same,TGI,[6],36.5 µM
same,TGI,[7],50.2 µM
same,TGI,[8],> 100 µM
O=C(CCC/C(CC(=O)c1ccc(Br)cc1)=N\O)Nc1ccccc1,TGI,[10],> 100 µM
same,TGI,[1],> 100 µM
same,TGI,[2],> 100 µM
same,TGI,[3],> 100 µM
same,TGI,[4],> 100 µM
same,TGI,[6],> 100 µM
same,TGI,[7],> 100 µM
same,TGI,[8],> 100 µM
same,TGI,[9],> 100 µM
CCN(CC)CCNCC(=O)Oc1ccc(/C=C/C(=O)CC(=O)/C=C/c2ccc(OC(=O)CNCCN(CC)CC)c(OC)c2)cc1OC,GI50,[10],8.67 µM
same,TGI,[10],> 100 µM
same,GI50,[1],4.04 µM
same,TGI,[1],8.94 µM
same,GI50,[2],3.39 µM
same,TGI,[2],91.8 µM
same,GI50,[3],3.32 µM
same,TGI,[3],79.6 µM
same,GI50,[4],3.48 µM
same,TGI,[4],11 µM
same,GI50,[5],3.68 µM
same,TGI,[5],15.3 µM
same,GI50,[7],3.83 µM
same,TGI,[7],16.2 µM
same,GI50,[8],5.14 µM
same,TGI,[8],> 100 µM
Cc1cc(C)n(CCNCCn2nc(C)cc2C)n1,TGI,[10],> 100 µM
same,TGI,[2],> 100 µM
same,TGI,[3],> 100 µM
same,TGI,[4],> 100 µM
same,TGI,[5],> 1 µM
same,TGI,[6],> 100 µM
same,TGI,[7],> 100 µM
same,TGI,[8],> 100 µM
same,TGI,[9],> 100 µM
CC(=O)Oc1ccccc1C(=O)N=C1[Se]CCCN1C(=O)c1ccccc1OC(C)=O,GI50,[10],1.93 µM
same,TGI,[10],5.57 µM
same,GI50,[1],2.83 µM
same,TGI,[1],11.6 µM
same,GI50,[2],2.14 µM
same,TGI,[2],5.63 µM
same,GI50,[3],4.12 µM
same,TGI,[3],24.7 µM
same,GI50,[4],1.33 µM
same,TGI,[4],4.25 µM
same,GI50,[5],2.53 µM
same,TGI,[5],7.28 µM
same,GI50,[6],2.72 µM
same,TGI,[6],7.78 µM
same,GI50,[7],1.64 µM
same,TGI,[7],3 µM
same,GI50,[8],1.92 µM
same,TGI,[8],4.96 µM
N#CC1Nc2ccccc2[C@@H](O)C1O (some centres not stated),TGI,[10],> 100 µM
same,TGI,[1],> 100 µM
same,TGI,[2],> 100 µM
same,TGI,[3],> 100 µM
same,TGI,[5],> 100 µM
same,TGI,[6],> 100 µM
same,TGI,[7],> 100 µM
same,TGI,[8],> 100 µM
same,TGI,[9],> 100 µM
CCOC(=O)CCc1c(C)c2c(OC(C)=O)cc(OC(C)=O)cc2oc1=O,TGI,[10],> 100 µM
same,TGI,[2],> 100 µM
same,TGI,[3],87 µM
same,TGI,[4],> 100 µM
same,TGI,[6],> 100 µM
same,TGI,[7],> 100 µM
O=C1c2ccn(CCCCNC(CO)(CO)CO)c2C(=O)c2c1c(O)c1ccccc1c2O,GI50,[10],2.35 µM
same,TGI,[10],> 22.2 µM
same,GI50,[1],2.01 µM
same,TGI,[1],> 100 µM
same,GI50,[2],2.56 µM
same,TGI,[2],21 µM
same,GI50,[3],4.39 µM
same,TGI,[3],8.83 µM
same,GI50,[4],23.7 µM
same,TGI,[4],> 100 µM
same,GI50,[6],3.01 µM
same,TGI,[6],7.78 µM
same,GI50,[7],1.95 µM
same,TGI,[7],4.67 µM
same,GI50,[8],2.27 µM
same,TGI,[8],4.2 µM
CC1=C(C(=O)Nc2c(C)cccc2C)C(c2ccccc2Cl)C(C(=O)Nc2c(C)cccc2C)=C(C)N1,TGI,[10],> 100 µM
same,TGI,[1],> 100 µM
same,TGI,[2],> 100 µM
same,TGI,[3],> 100 µM
same,TGI,[4],> 100 µM
same,TGI,[6],> 100 µM
same,TGI,[7],> 100 µM
same,TGI,[8],> 100 µM
same,TGI,[9],> 100 µM
c1ccc2c3ccn4cc5c(cc4c-3nc2c1)CCCC5,GI50,[10],2.85 µM
same,TGI,[10],11 µM
same,GI50,[2],0.81 µM
same,TGI,[2],3.81 µM
same,GI50,[3],3.57 µM
same,TGI,[3],16.2 µM
same,GI50,[4],14.6 µM
same,TGI,[4],29.8 µM
same,GI50,[5],24.1 µM
same,TGI,[5],> 100 µM
same,GI50,[6],3.13 µM
same,TGI,[6],14.7 µM
same,GI50,[7],3.22 µM
same,TGI,[7],13.6 µM
same,GI50,[8],2.45 µM
same,TGI,[8],12.5 µM
same,GI50,[9],3.52 µM
same,TGI,[9],> 100 µM
